# Laboratory results published in publication PMC5063900, “A phase 1 study of the safety, tolerability, pharmacokinetics, and pharmacodynamics of TAK-063, a selective PDE10A inhibitor” (Psychopharmacology, 2016).
# Marks after values point to notes of the source that are not given here.
# Assay: Plasma and urine pharmacokinetics after single oral dose under fasting conditions
# Type: in vivo, human
# Conditions: for AUC(0-inf) / C max / CL/F (oral clearance) / T 1/2 / Vz/F (volume of distribution) / T max / CL/F / Vz/F: plasma
# Procedure: Healthy Japanese and non-Japanese subjects between 18 and 55 years of age were recruited to participate in the study. Criteria for exclusion included prior treatment with any investigational compound within 30 days of the first TAK-063 dose, a positive test for drugs of abuse or nicotine, and an increased risk for suicide. Subjects were randomized into 1 of 6 dose cohorts (3, 10, 30, 100, 300, and 1000 mg), with each cohort containing 11 TAK-063 subjects (five Japanese, six non-Japanese) and three placebo subjects (one Japanese, two non-Japanese) receiving a single dose under fasting conditions. Following a washout period of 7 days, subjects in cohort 3 (100 mg) received the same dose (100 mg) but under fed conditions. Serial plasma and urine samples were collected from all subjects prior to dosing and at specific time points or intervals up to 96 h postdose. Pharmacokinetic samples were processed immediately and frozen at −20 °C as duplicate sets. Plasma concentrations of TAK-063 and its metabolite M-I were subsequently measured by validated liquid chromatography-tandem mass spectrometry with a validated range of 0.5 to 1000 ng/mL for both analytes. The PK parameters analyzed for TAK-063 and its metabolite M-I in plasma and urine included area under the plasma concentration-time curve from time 0 to infinity (AUC (0-inf)), maximum observed plasma concentration (C max), time to reach C max (T max), terminal elimination half-life (T 1/2), oral clearance (CL/F), volume of distribution (Vz/F), and renal clearance (CLr). Metabolite-to-parent ratios were estimated from C max and AUC (0-inf) data. All statistical analyses were generated using SAS Version 9.2 (SAS, Cary, NC, USA). The PK parameters were derived using non-compartmental methods with WinNonlin Enterprise Version 6.3 (Pharsight Corp., Mountain View, CA, USA). Frequency or descriptive statistics were used for summary of data. Where indicated, percent coefficient of variation was included in the summary of continuous data. All statistical tests were 2-tailed at α = 0.05 level for significance unless otherwise stated. A power model was used to evaluate dose proportionality by race for fasted subjects; in the event of no observed race effect, dose proportionality was assessed for all subjects. To evaluate the food effect, a paired t test was performed on T max and natural log-transformed C max, and AUCs. An ANCOVA model with baseline scores and race as covariates was used to assess the effects of TAK-063 on CNSVS domain scores.
# [1] = Japanese subjects, TAK-063 3 mg (n = 5), arithmetic mean
# [2] = Japanese subjects, TAK-063 10 mg (n = 5), arithmetic mean
# [3] = Japanese subjects, TAK-063 30 mg (n = 5), arithmetic mean
# [4] = Japanese subjects, TAK-063 100 mg (n = 4), arithmetic mean
# [5] = Japanese subjects, TAK-063 100 mg (n = 5; TAK-063 n = 4), arithmetic mean
# [6] = Japanese subjects, TAK-063 300 mg (n = 4), arithmetic mean
# [7] = Japanese subjects, TAK-063 300 mg (n = 5; TAK-063 n = 4), arithmetic mean
# [8] = Japanese subjects, TAK-063 1000 mg (n = 5), arithmetic mean
# [9] = fasting, all subjects, TAK-063 3 mg (n = 11), arithmetic mean (% CV)
# [10] = fasting, all subjects, TAK-063 3 mg (n = 11; M-I n = 10), arithmetic mean (% CV)
# [11] = fasting, all subjects, TAK-063 10 mg (n = 11), arithmetic mean (% CV)
# [12] = fasting, all subjects, TAK-063 30 mg (n = 11), arithmetic mean (% CV)
# [13] = fasting, all subjects, TAK-063 100 mg (n = 9), arithmetic mean (% CV)
# [14] = fasting, all subjects, TAK-063 100 mg (n = 11; TAK-063 n = 9), arithmetic mean (% CV)
# [15] = fasting, all subjects, TAK-063 300 mg (n = 8), arithmetic mean (% CV)
# [16] = fasting, all subjects, TAK-063 300 mg (n = 11; TAK-063 n = 8), arithmetic mean (% CV)
# [17] = fasting, all subjects, TAK-063 1000 mg (n = 11), arithmetic mean (% CV)
# [18] = non-Japanese subjects, TAK-063 3 mg (n = 6), arithmetic mean
# [19] = non-Japanese subjects, TAK-063 3 mg (n = 6; M-I n = 5), arithmetic mean
# [20] = non-Japanese subjects, TAK-063 10 mg (n = 6), arithmetic mean
# [21] = non-Japanese subjects, TAK-063 30 mg (n = 6), arithmetic mean
# [22] = non-Japanese subjects, TAK-063 100 mg (n = 5), arithmetic mean
# [23] = non-Japanese subjects, TAK-063 100 mg (n = 6; TAK-063 n = 5), arithmetic mean
# [24] = non-Japanese subjects, TAK-063 300 mg (n = 4), arithmetic mean
# [25] = non-Japanese subjects, TAK-063 300 mg (n = 6; TAK-063 n = 4), arithmetic mean
# [26] = non-Japanese subjects, TAK-063 1000 mg (n = 6), arithmetic mean
smiles,measurement,setting,value
COc1cn(-c2ccc(-n3cccn3)cc2F)nc(-c2ccnn2-c2ccccc2)c1=O [TAK-063],Increase in AUC over the dose range,"333-fold increase in dose (3 to 1000 mg), fasting",up to 26 fold
same,AUC(0-inf),[1],250.3 ng·h/mL
same,C max,[1],16.1 ng/mL
same,CL/F (oral clearance),[1],12.5 L/h
same,T 1/2,[1],15.9 h
same,Vz/F (volume of distribution),[1],269.5 L
same,T max,"Japanese subjects, TAK-063 3 mg (n = 5), median",4.0 h
same,AUC(0-inf),[2],659.2 ng·h/mL
same,C max,[2],30.2 ng/mL
same,CL/F (oral clearance),[2],15.8 L/h
same,T 1/2,[2],18.2 h
same,Vz/F (volume of distribution),[2],412.2 L
same,T max,"Japanese subjects, TAK-063 10 mg (n = 5), median",4.0 h
same,AUC(0-inf),[3],1027.3 ng·h/mL
same,C max,[3],55.7 ng/mL
same,CL/F (oral clearance),[3],35.2 L/h
same,T 1/2,[3],17.8 h
same,Vz/F (volume of distribution),[3],889.4 L
same,T max,"Japanese subjects, TAK-063 30 mg (n = 5), median",4.0 h
same,AUC(0-inf),[4],1459.1 ng·h/mL
same,T 1/2,[4],20.7 h
same,C max,"Japanese subjects, TAK-063 100 mg (n = 5), arithmetic mean",89.9 ng/mL
same,T max,"Japanese subjects, TAK-063 100 mg (n = 5), median",3.0 h
same,CL/F (oral clearance),[5],75.8 L/h
same,Vz/F (volume of distribution),[5],2288.5 L
same,AUC(0-inf),[6],1636.0 ng·h/mL
same,T 1/2,[6],20.3 h
same,C max,"Japanese subjects, TAK-063 300 mg (n = 5), arithmetic mean",98.2 ng/mL
same,T max,"Japanese subjects, TAK-063 300 mg (n = 5), median",4.0 h
same,CL/F (oral clearance),[7],212.8 L/h
same,Vz/F (volume of distribution),[7],6409.8 L
same,AUC(0-inf),[8],4931.4 ng·h/mL
same,C max,[8],264.0 ng/mL
same,CL/F (oral clearance),[8],233.8 L/h
same,T 1/2,[8],11.7 h
same,Vz/F (volume of distribution),[8],3953.4 L
same,T max,"Japanese subjects, TAK-063 1000 mg (n = 5), median",4.0 h
same,C max,[9],11.8 (51) ng/mL
same,CL/F (oral clearance),[9],14.0 (48) L/h
same,Vz/F (volume of distribution),[9],407.0 (64) L
same,T max,"fasting, all subjects, TAK-063 3 mg (n = 11), median (minimum, maximum)","4.0 (2.0, 24.0) h"
same,AUC(0-inf),[10],244.9 (32) ng·h/mL
same,T 1/2,[10],20.4 (48) h
same,AUC(0-inf),[11],576.7 (29) ng·h/mL
same,C max,[11],26.7 (34) ng/mL
same,CL/F (oral clearance),[11],18.7 (30) L/h
same,T 1/2,[11],19.9 (18) h
same,Vz/F (volume of distribution),[11],529.5 (29) L
same,T max,"fasting, all subjects, TAK-063 10 mg (n = 11), median (minimum, maximum)","4.0 (2.0, 16.0) h"
same,AUC(0-inf),[12],1003.6 (42) ng·h/mL
same,C max,[12],46.9 (61) ng/mL
same,CL/F (oral clearance),[12],33.1 (27) L/h
same,T 1/2,[12],20.4 (30) h
same,Vz/F (volume of distribution),[12],954.8 (33) L
same,T max,"fasting, all subjects, TAK-063 30 mg (n = 11), median (minimum, maximum)","4.0 (3.0, 16.0) h"
same,AUC(0-inf),[13],1406.8 (38)^c ng·h/mL
same,T 1/2,[13],24.6 (37)^c h
same,C max,"fasting, all subjects, TAK-063 100 mg (n = 11), arithmetic mean (% CV)",80.5 (48) ng/mL
same,T max,"fasting, all subjects, TAK-063 100 mg (n = 11), median (minimum, maximum)","3.0 (1.5, 6.0) h"
same,CL/F (oral clearance),[14],80.3 (35)^c L/h
same,Vz/F (volume of distribution),[14],2802.2 (46)^c L
same,AUC(0-inf),[15],1900.8 (39)^d ng·h/mL
same,T 1/2,[15],20.2 (26)^d h
same,C max,"fasting, all subjects, TAK-063 300 mg (n = 11), arithmetic mean (% CV)",100.3 (18) ng/mL
same,T max,"fasting, all subjects, TAK-063 300 mg (n = 11), median (minimum, maximum)","4.0 (1.9, 8.0) h"
same,CL/F (oral clearance),[16],185.9 (48)^d L/h
same,Vz/F (volume of distribution),[16],5570.7 (57)^d L
same,AUC(0-inf),[17],5788.1 (81) ng·h/mL
same,C max,[17],245.8 (34) ng/mL
same,CL/F (oral clearance),[17],232.0 (42) L/h
same,T 1/2,[17],14.6 (43) h
same,Vz/F (volume of distribution),[17],5277.2 (81) L
same,T max,"fasting, all subjects, TAK-063 1000 mg (n = 11), median (minimum, maximum)","4.0 (2.0, 12.0) h"
same,C max,[18],8.2 ng/mL
same,CL/F,[18],15.2 L/h
same,Vz/F,[18],521.6 L
same,T max,"non-Japanese subjects, TAK-063 3 mg (n = 6), median",5.0 h
same,AUC(0-inf),[19],240.4 ng·h/mL
same,T 1/2,[19],24.2 h
same,AUC(0-inf),[20],507.9 ng·h/mL
same,C max,[20],23.8 ng/mL
same,CL/F,[20],21.2 L/h
same,T 1/2,[20],21.3 h
same,Vz/F,[20],627.3 L
same,T max,"non-Japanese subjects, TAK-063 10 mg (n = 6), median",5.0 h
same,AUC(0-inf),[21],983.9 ng·h/mL
same,C max,[21],39.5 ng/mL
same,CL/F,[21],31.4 L/h
same,T 1/2,[21],22.6 h
same,Vz/F,[21],1009.2 L
same,T max,"non-Japanese subjects, TAK-063 30 mg (n = 6), median",5.0 h
same,AUC(0-inf),[22],1364.9 ng·h/mL
same,T 1/2,[22],27.8 h
same,C max,"non-Japanese subjects, TAK-063 100 mg (n = 6), arithmetic mean",72.7 ng/mL
same,T max,"non-Japanese subjects, TAK-063 100 mg (n = 6), median",3.5 h
same,CL/F,[23],84.0 L/h
same,Vz/F,[23],3213.2 L
same,AUC(0-inf),[24],2165.7 ng·h/mL
same,T 1/2,[24],20.0 h
same,C max,"non-Japanese subjects, TAK-063 300 mg (n = 6), arithmetic mean",102.1 ng/mL
same,T max,"non-Japanese subjects, TAK-063 300 mg (n = 6), median",3.5 h
same,CL/F,[25],159.0 L/h
same,Vz/F,[25],4731.5 L
same,AUC(0-inf),[26],6502.0 ng·h/mL
same,C max,[26],230.7 ng/mL
same,CL/F,[26],230.6 L/h
same,T 1/2,[26],17.0 h
same,Vz/F,[26],6380.3 L
same,T max,"non-Japanese subjects, TAK-063 1000 mg (n = 6), median",4.0 h
same,CLr (renal clearance),"urine, Japanese subjects, TAK-063 30 mg (n = 5), arithmetic mean",4.0 mL/h
same,CLr (renal clearance),"urine, Japanese subjects, TAK-063 100 mg (n = 5), arithmetic mean",7.9 mL/h
same,CLr (renal clearance),"urine, Japanese subjects, TAK-063 300 mg (n = 5), arithmetic mean",5.9 mL/h
same,CLr (renal clearance),"urine, Japanese subjects, TAK-063 1000 mg (n = 5), arithmetic mean",6.8 mL/h
same,Renal elimination,"urine, fasting",negligible
same,CLr (renal clearance),"urine, fasting, all subjects, TAK-063 30 mg (n = 11), arithmetic mean (% CV)",2.4 (123) mL/h
same,CLr (renal clearance),"urine, fasting, all subjects, TAK-063 100 mg (n = 11), arithmetic mean (% CV)",5.9 (78) mL/h
same,CLr (renal clearance),"urine, fasting, all subjects, TAK-063 300 mg (n = 11), arithmetic mean (% CV)",6.1 (63) mL/h
same,CLr (renal clearance),"urine, fasting, all subjects, TAK-063 1000 mg (n = 11), arithmetic mean (% CV)",6.8 (56) mL/h
same,CLr,"urine, non-Japanese subjects, TAK-063 30 mg (n = 6), arithmetic mean (% CV)",1.1 (179) mL/h
same,CLr,"urine, non-Japanese subjects, TAK-063 100 mg (n = 6), arithmetic mean (% CV)",4.2 (84) mL/h
same,CLr,"urine, non-Japanese subjects, TAK-063 300 mg (n = 6), arithmetic mean (% CV)",6.2 (63) mL/h
same,CLr,"urine, non-Japanese subjects, TAK-063 1000 mg (n = 6), arithmetic mean (% CV)",6.8 (61) mL/h
